Columns and labels:
[1] = molecular target: T1, JAK2 kinase domain (Homo sapiens, UniProt O60674); experiment: Biochemical assay for inhibitors of JAK kinase activity (JAK2, 33P-γ-ATP/dowex resin); details: JAK2 kinase domain 1 nM, 60 μM ATP
T1 construct: commercially available JAK2 kinase domain; purchased Invitrogen, Eugene, Oreg
Outline: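 Human JAK2 (1 nM) phosphorylated peptide BioDBn*306 (64 μM) with 60 μM ATP plus 3 nM 33P-γ-ATP in HEPES pH 7.5/MgCl2/DTT buffer, 60 min at room temperature. Unreacted ATP captured by Dowex resin; supernatant β-counted. IC50 from sigmoidal fit of ten-point 1:3 dilution curves.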

[2] = molecular target: T2, Lyn full length (Homo sapiens, UniProt P07948); experiment: Biochemical assay for inhibitors of Lyn (Src family) kinase activity; details: Lyn full length 1 nM, 25 μM ATP
T2 construct: The assay has been performed using Lyn full length
Outline: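 Radiometric Lyn assay: 1 nM full-length enzyme in 50 mM HEPES pH 7.5 with 25 μM ATP plus 33P-γ-ATP and 250 μM ABI 1 peptide, 60 min at room temperature. Unreacted ATP removed by Dowex resin; supernatant β-counted. IC50 from sigmoidal fit of ten-point 1:3 dilution curves.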

[3] = system: JAK2 dependent human megakaryoblastic leukemia cell line SET-2; experiment: Cell proliferation assay (CellTiter-Glo, 72 hours); assay type: cell-based; details: Homo sapiens, SET-2 cells
Outline: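 About 5×10^3 SET-2 cells per well, in RPMI-1640 with 10% FBS, were exposed to inhibitor dilutions for 72 hours at 37 °C, 5% CO2. Viability read by CellTiter-Glo luminescence. IC50 from sigmoidal fitting of 8-point dilution curves.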

T1 sequence (O60674 849-1124 limits assumed): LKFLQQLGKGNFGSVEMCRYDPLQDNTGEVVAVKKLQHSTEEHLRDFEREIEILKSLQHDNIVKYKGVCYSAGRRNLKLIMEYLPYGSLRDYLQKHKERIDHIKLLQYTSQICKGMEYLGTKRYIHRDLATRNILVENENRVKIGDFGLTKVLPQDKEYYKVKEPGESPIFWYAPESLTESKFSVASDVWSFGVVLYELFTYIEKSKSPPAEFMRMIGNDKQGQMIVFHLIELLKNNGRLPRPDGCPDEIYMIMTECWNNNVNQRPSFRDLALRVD
T2 sequence (P07948 whole entry): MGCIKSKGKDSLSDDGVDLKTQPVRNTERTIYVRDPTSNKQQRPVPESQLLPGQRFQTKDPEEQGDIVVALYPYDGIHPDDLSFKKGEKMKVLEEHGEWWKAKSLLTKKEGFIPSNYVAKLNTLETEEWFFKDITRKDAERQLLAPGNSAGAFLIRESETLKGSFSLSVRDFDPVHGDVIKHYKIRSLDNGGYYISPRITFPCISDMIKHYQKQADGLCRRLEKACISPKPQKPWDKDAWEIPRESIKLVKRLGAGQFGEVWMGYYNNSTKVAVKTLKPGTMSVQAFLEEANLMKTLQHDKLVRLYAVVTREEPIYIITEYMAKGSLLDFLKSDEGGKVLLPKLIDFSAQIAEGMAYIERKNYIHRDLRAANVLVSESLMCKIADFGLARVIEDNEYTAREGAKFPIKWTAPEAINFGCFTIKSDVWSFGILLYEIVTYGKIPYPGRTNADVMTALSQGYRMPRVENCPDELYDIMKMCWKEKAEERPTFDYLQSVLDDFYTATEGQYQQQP

SMILES | IC50 [1] | IC50 [2] | IC50 [3]
Cc1ccc(Cl)cc1-c1[nH]c(-c2ccnc(N)n2)c(C#Cc2cccc(CN3CCN(C)CC3)c2)c1C(N)=O [compound 81, 5-(2-Aminopyrimidin-4-yl)-2-(5-chloro-2-methylphenyl)-4-({3-[(4-methylpiperazin-1-yl)methyl]phenyl}ethynyl)-1H-pyrrole-3-carboxamide] | 6 nM | 3 nM | 540 nM
Cc1ccc(Cl)cc1-c1[nH]c(-c2nc(N)ncc2C#Cc2ccc(CN3CCCCC3)cc2)cc1C(N)=O [compound 67, 5-(2-Amino-5-{[4-(piperidin-1-ylmethyl)phenyl]ethynyl}pyrimidin-4-yl)-2-(5-chloro-2-methylphenyl)-1H-pyrrole-3-carboxamide] | 1 nM | 1 nM | 190 nM
COc1ccc(N)cc1C#Cc1cnc(N)nc1-c1cc(C(N)=O)c(-c2cc(Cl)ccc2C)[nH]1 [compound 9, 5-{2-Amino-5-[(5-amino-2-methoxyphenyl)ethynyl]pyrimidin-4-yl}-2-(5-chloro-2-methylphenyl)-1H-pyrrole-3-carboxamide] | 1 nM | 10 nM | 340 nM
COc1ccc(N2CCN(C)CC2)cc1C#Cc1cnc(N)nc1-c1cc(C(N)=O)c(-c2cc(Cl)ccc2C)[nH]1 [compound 34, 5-(2-Amino-5-{[2-methoxy-5-(4-methylpiperazin-1-yl)phenyl]ethynyl}pyrimidin-4-yl)-2-(5-chloro-2-methylphenyl)-1H-pyrrole-3-carboxamide] | 5 nM | 20 nM | 670 nM
Cc1ccc(Cl)cc1-c1[nH]c(-c2ccnc(N)n2)c(C#Cc2cccc(N3CCN(C)CC3)c2)c1C(N)=O [compound 90, 5-(2-Aminopyrimidin-4-yl)-2-(5-chloro-2-methylphenyl)-4-{[3-(4-methylpiperazin-1-yl)phenyl]ethynyl}-1H-pyrrole-3-carboxamide carboxamide] | 3 nM | 5 nM | 300 nM
Cc1ccc(Cl)cc1-c1[nH]c(-c2ccnc(N)n2)c(C#Cc2ccc(N)cc2)c1C(N)=O [compound 76, 4-[(4-Aminophenyl)ethynyl]-5-(2-amino-pyrimidin-4-yl)-2-(5-chloro-2-methyl-phenyl)-1H-pyrrole-3-carboxamide] | 3 nM | 8 nM | 500 nM

Source: patent US8912200B2, “Alkynyl substituted pyrimidinyl-pyrroles active as kinases inhibitors” (Nerviano Medical Sciences S.R.L., priority 2011, dated 2014)
